Results reported in US8536196B2, “Substituted 1,3-dioxanes useful as PPAR modulators” (Evolva SA, priority 2007, dated 2013).

Experiments:
[1] = molecular target: T1, full length human PPARgamma (hPPARg2) (Homo sapiens, UniProt P37231); test: Transactivation assay with full length human PPARgamma; type: cell-based
T1 construct: expressed in transfected cells
T1 sequence (P37231 1-505): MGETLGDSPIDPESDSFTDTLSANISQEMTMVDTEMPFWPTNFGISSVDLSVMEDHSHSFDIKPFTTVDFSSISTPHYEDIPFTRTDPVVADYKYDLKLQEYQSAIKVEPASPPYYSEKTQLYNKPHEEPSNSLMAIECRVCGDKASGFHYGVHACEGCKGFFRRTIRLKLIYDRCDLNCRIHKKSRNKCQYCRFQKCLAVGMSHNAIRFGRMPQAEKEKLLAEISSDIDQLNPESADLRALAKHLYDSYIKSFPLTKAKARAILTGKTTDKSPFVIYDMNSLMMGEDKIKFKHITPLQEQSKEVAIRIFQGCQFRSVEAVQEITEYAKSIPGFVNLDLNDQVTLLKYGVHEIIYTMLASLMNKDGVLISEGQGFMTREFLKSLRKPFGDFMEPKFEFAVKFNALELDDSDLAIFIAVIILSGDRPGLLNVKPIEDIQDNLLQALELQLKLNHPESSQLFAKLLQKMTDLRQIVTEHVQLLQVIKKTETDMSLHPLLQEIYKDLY
Experimental: When this assay was carried out essentially as described above but with the full length human PPARgamma rather than with the PPARgamma ligand binding domain, activation of full-length hPPARg2 was seen to 64% of the Avandia positive control (FIG. 3).

[2] = molecular target: T2, mPPARdeltaLBD (Mus musculus, UniProt P35396); test: PPARdelta transactivation assay; type: cell-based
T2 construct: expressed in transfected cells
T2 sequence (P35396 210-438 limits assumed): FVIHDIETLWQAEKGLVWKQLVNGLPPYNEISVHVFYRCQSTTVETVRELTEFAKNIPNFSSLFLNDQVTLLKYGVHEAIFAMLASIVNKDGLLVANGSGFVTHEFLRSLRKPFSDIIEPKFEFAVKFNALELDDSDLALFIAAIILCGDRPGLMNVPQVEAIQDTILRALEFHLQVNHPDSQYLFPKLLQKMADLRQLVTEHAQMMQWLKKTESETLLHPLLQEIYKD
Experimental: This example describes a transactivation assay for determining PPARdelta modulating activity.
DPD and other ligands are tested for their ability to transactivate PPARdelta essentially as described in Example 22.

[3] = molecular target: T3, full length human PPARdelta (Homo sapiens, UniProt Q03181); test: Transactivation assay with full length human PPARdelta; type: cell-based
T3 construct: expressed in transfected cells
T3 sequence (Q03181 1-441): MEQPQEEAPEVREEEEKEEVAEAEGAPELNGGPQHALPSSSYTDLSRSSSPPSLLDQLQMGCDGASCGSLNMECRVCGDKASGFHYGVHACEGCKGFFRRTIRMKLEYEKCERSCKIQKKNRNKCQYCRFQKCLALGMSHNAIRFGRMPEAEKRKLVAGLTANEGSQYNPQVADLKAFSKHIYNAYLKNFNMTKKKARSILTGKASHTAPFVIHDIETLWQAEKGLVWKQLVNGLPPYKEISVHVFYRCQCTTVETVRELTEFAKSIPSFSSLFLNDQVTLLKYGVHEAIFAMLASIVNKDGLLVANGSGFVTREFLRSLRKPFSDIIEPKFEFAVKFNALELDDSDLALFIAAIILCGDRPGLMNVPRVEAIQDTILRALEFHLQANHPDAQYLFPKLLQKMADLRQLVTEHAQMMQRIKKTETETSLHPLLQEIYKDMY

[4] = system: 3T3-L1 cells; test: Inhibition of adipocyte differentiation assay (Oil Red O staining); type: cell-based
Experimental: To test compounds as inhibitors of adipocyte differentiation, 3T3-L1 cells are grown as above until two-day postconfluence (designated day 0), after which the cells are induced to differentiate with DMEM containing 10% fetal bovine serum (FBS), 1 μM dexamethasone (Sigma), 0.5 mM methylisobutylxanthine (Sigma), 1 μg/ml insulin (Roche Molecular Biochemicals) and the test-compound. Cells induced to differentiate in presence of solvent of the test-compounds are used as positive control. After 48 h, the cells are re-fed with DMEM containing 10% FBS supplemented with the test compound or the positive control. From day 4, cells are grown in DMEM with 10% FBS and are changed every second day until day 8. At day 8, cells are stained with Oil Red O as described below.
Cells cultured as described above are used for Oil Red staining. Dishes are washed in PBS and cells were fixed in 3.7% paraformaldehyde for 1 h and stained with oil red O as described in (Hansen et al 1999). Oil red O solution stock solution is prepared by dissolving 0.5 g of Oil Red O (Sigma) in 100 mL of isopropanol. Oil re 0 working solution is prepared by diluting a stock solution with water (6:4) followed by filtration.

[5] = system: human cervical carcinoma cell line (HeLa); test: Inhibition of cancer cell proliferation (flow cytometry); type: cell-based; details: 48 hours of treatment, read-out: inhibition of proliferation of HeLa cells
Experimental: (§1) A human cervical carcinoma cell line (HeLa) engineered to stably express a recombinant biosensor reporter activity and a non-cancer cell line, HaCaT (Boukamp et al., 1988, J. Cell Biol 106(3):761-771) was used with a Caspa Tag kit (commercially available eg from Chemicon). The detection of proliferation was carried out using a high content screening automated flow cytometer.
(§2) DPD (Substance 1) was diluted to 20 μM in cell culture medium without serum adjusted to 1% DMSO. Detection of cellular events was performed in duplicate in 96-well plates after 48 hours of treatment in the FL2 (dilution of a proliferative marker) channels of a HTS flow cytometer (FACS Calibur HTS, Becton Dickenson). At day 1, cells were seeded in 96 well plates. Cells were treated with DPD and the appropriate controls on day 2 and analysis was carried out on day 4.

[6] = system: HaCaT; test: Proliferation of non-cancer cell line (flow cytometry); type: cell-based; details: 20 μM, 48 hours of treatment
Experimental: as §1, §2

[7] = molecular target: T4, PPARgamma (h) (Homo sapiens, UniProt P37231); test: Human recombinant (E. coli) PPARgamma (h) binding assay; details: [3H]-rosiglitazone 10 nM, 120 min at 4° C.
T4 construct: host or cells: E. coli
T4 sequence (P37231 1-505): T1 sequence (P37231 1-505)
Experimental: The results are expressed as a percent of control specific binding ((measured specific binding/control specific binding)×100) obtained in the presence of the test compounds. The IC50 values (concentration causing a half-maximal inhibition of control specific binding) and Hill coefficients (nH) were determined by non-linear regression analysis of the competition curves generated with mean replicate values using Hill equation curve fitting (Y=D+[(A D)/(1+(C/C50)nH)], where Y=specific binding, D=minimum specific binding, A=maximum specific binding, C=compound concentration, C50=IC50, and nH=slope factor). This analysis was performed using a software developed at Cerep (Hill software) and validated by comparison with data generated by the commercial software SigmaPlot® 4.0 for Windows® (© 1997 by SPSS Inc.). The inhibition constants (Ki) were calculated using the Cheng Prusoff equation (Ki=IC50/(1+(L/KD)), where L=concentration of radioligand in the assay, and KD=affinity of the radioligand for the receptor).

With `O=C(O)CC/C=C\CC1COC(c2ccccc2Cl)OC1c1ccccc1O` (racemic) [SN1, (Z)-6-(-2-(2-chlorophenyl)-4-(2-hydroxyphenyl)-1,3-dioxan-5-yl)hex-4-enoic acid] the “activation of full-length hPPARg2, % of the Avandia positive control” value [1] was 64%, the “increase in PPARdelta transactivation” value [2] was “no or little increase in transactivation” and the “activation of full-length hPPARdelta” value [3] was “no activation”. For the same compound, the “inhibition of adipocyte differentiation” value [4] was “no significant effect”, the inhibition at 20 µM [5] was 90% and the “effect on non-cancer cell line HaCaT” value [6] was “no effect”. The IC50 [7] was 21 µM.
